What all share (type): cell-based
For one experiment, the system named is Wnt/Beta-Catenin. The experiment is described as follows: SelectScreen CellSensor pathway inhibition, Wnt/Beta-Catenin. The following applies: LEF-TCF-bla HCT116, no stimulus (constitutively activated). How it is done:
(§1) Inhibition of various cellular pathways known to be involved in malignancy was tested using the SelectScreen Cell-based Pathway Profiling GeneBLAzer™ cell signaling pathway specific CellSensor™ cell lines ((Thermo Fisher). The assay is based on a beta-lactamase reporter activity which is modulated and can be measured quantitatively and selectively with the LiveBLAzer™-FRET B/G Loading Substrate. SelectScreen Cell-Based Pathway Profiling Service uses XLfit from IDBS. The dose response curve is curve fit to model number 205 (sigmoidal dose-response model). Custom logic was built by Thermo Fisher for the data analysis tool to address the different compound characteristics that can be observed with functional assays.
Wnt/Beta-Catenin—LEF-TCF-bla HCT116—Inhibitor Screen, Constitutively Activated
LEF-TCF-bla HCT116 cells are thawed and resuspended in Assay Media (OPTI-MEM, 0.5% dialyzed FBS, 0.1 mM NEAA, 1 mM Sodium Pyruvate, 100 U/mL/100 μg/mL Pen/Strep) to a concentration of 312,500 cells/mL. 32 μL of cell suspension is added to each well of a 384-well Poly-D-Lysine assay plate. Cells in Assay Media are incubated for 16-24 hours in the plate at 37° C./5% CO2 in a humidified incubator. 4 μL of a 10× serial dilution of ICG-001 (control inhibitor starting concentration, 25,000 nM) or compounds are added to appropriate wells of the plate. […] The plate is read on a fluorescence plate reader.

A further experiment relates to Oxidative Stress. Nature of the experiment: SelectScreen CellSensor pathway inhibition, Oxidative Stress. The following applies: ARE-bla HepG2, stimulus tBHQ. The procedure:
as §1
Oxidative Stress—ARE-bla HepG2—Inhibitor Screen, Activated by tBHQ
ARE-bla HepG2 cells are thawed and resuspended in Assay Media (DMEM, 10% dialyzed FBS, 25 mM HEPES pH 7.3, 0.1 mM NEAA, 100 U/mL/100 μg/mL Pen/Strep) to a concentration of 375,000 cells/mL. 32 μL of cell suspension is added to each well of a 384-well Poly-D-Lysine assay plate. Cells in Assay Media are incubated for 16-24 hours in the plate at 37° C./5% CO2 in a humidified incubator. […] The plate is read on a fluorescence plate reader.

Experiment [1] concerns the target Toll-like Receptor (TLR4). Nature of the experiment: SelectScreen CellSensor pathway inhibition, Toll-like Receptor (TLR4). The following applies: NFkB-bla THP-1, stimulus LPS. How it is done:
as §1
Toll-like Receptor (TLR4)—NFKB-bla THP-1—Inhibitor Screen, Activated by LPS
NFKB-bla THP-1 cells are thawed and resuspended in Assay Media (RPMI, 0.5% dialyzed FBS, 0.1 mM NEAA, 1 mM Sodium Pyruvate, 100 U/mL/[…] Pen/Strep) to a concentration of 625,000 cells/mL. 32 μL of cell suspension is added to each well of a 384-well TC-Treated assay plate. Cells in Assay Media are incubated for 16-24 hours in the plate at 37° C./5% CO2 in a humidified incubator. […] The plate is read on a fluorescence plate reader.

For a further experiment, the system named is NFKB. Nature of the experiment: SelectScreen CellSensor pathway inhibition, NFKB. The following applies: NFKB-bla Jurkat, stimulus TNF-alpha. How it is done: as §1
NFKB—NFKB-bla Jurkat—Inhibitor Screen, Activated by TNF-Alpha
NFKB-bla Jurkat cells are thawed and resuspended in Assay Media (DMEM, 10% dialyzed FBS, 25 mM HEPES pH 7.3, 0.1 mM NEAA, 100 U/mL/100 μg/mL Pen/Strep) to a concentration of 625,000 cells/mL. […] 4 μL of 10×control activator TNF-alpha at the pre-determined EC80 concentration is added to wells containing the control inhibitor or compounds.
The plate is incubated for 5 hours at 37° C./5% CO2 in a humidified incubator. […] The plate is read on a fluorescence plate reader.

For the next experiment, the system named is JAK/STAT. Nature of the experiment: SelectScreen CellSensor pathway inhibition, JAK/STAT. The following applies: ISRE-bla Jurkat, stimulus IFN-alpha. The procedure: as §1
JAK/STAT—ISRE-bla HEK 293T—Inhibitor Screen, Activated by IFN-Alpha
ISRE-bla HEK 293T cells are thawed and resuspended in Assay Media (OPTI-MEM, 0.5% dialyzed FBS, 0.1 mM NEAA, 1 mM Sodium Pyruvate, 100 U/mL/[…] Pen/Strep) to a concentration of 625,000 cells/mL. 32 μL of cell suspension is added to each well of a 384-well TC-Treated assay plate. Cells in Assay Media are incubated for 16-24 hours in the plate at 37° C./5% CO2 in a humidified incubator. […] 4 μL of 10× control activator IFN-alpha at the pre-determined EC80 concentration is added to wells containing the control inhibitor or compounds. […] The plate is read on a fluorescence plate reader.

The values that follow come from patent publication US20260028364A1, “CATIONIC CHROMENONES AND THEIR USE IN ONCOLOGY” (FLORATEK PHARMA S.A., priority 2022, published 2026).

By IC50 is commonly meant the concentration needed to halve the response being measured.

As to `O=C1[C@H](Cc2ccc(O)cc2)N2C(=O)CCN(C(=O)NCc3ccccc3)[C@H]2CN1Cc1cccc2ccccc12` [ICG-001, reference compound], the IC50 in the experiment on Wnt/Beta-Catenin was found to be 1830 nM. `Cn1cc(C2=C(c3cn(CCCSC(=N)N)c4ccccc34)C(=O)NC2=O)c2ccccc21` [Ro-31-8220, reference compound]: the 50% inhibitory concentration (IC50) was 1670 nM in the experiment on Oxidative Stress and 460 nM in experiment [1]. The compound `CC1=C(CO)C(=O)O[C@@H]([C@@H](C)[C@H]2CC[C@H]3[C@@H]4C[C@H]5O[C@]56[C@@H](O)C=CC(=O)[C@]6(C)[C@H]4CC[C@]23C)C1` [Withaferin A, reference compound] registered an IC50 in the experiment with NFKB of 240 nM. As to JAK Inhibitor I [reference compound], the half-maximal inhibitory concentration (IC50) in the experiment with JAK/STAT was found to be 19 nM.
